Data published in patent US10227347B2, “Purinyl-N-hydroxyl pyrimidine formamide derivative, preparation methods and uses thereof” (Guizhou Bailing Group Pharmaceutical CO., LTD., priority 2015, dated 2019).
Like-named read-outs stand apart in the source and are kept apart here.

Tests used:
HDAC1 = target: T1, HDAC1 (Homo sapiens, UniProt Q13547); test: In vitro HDAC1 enzymatic activity inhibition (Lys-Ac-AMC substrate); type: biochemical
T1 construct: purchased BPS Bioscience
Summary of the method: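 Fluorogenic Lys-Ac-AMC deacetylation with trypsin development in modified Tris buffer pH 7.0; compound preincubated with enzyme 15 min at ambient temperature before substrate addition. Final HDAC1 6 nM, trypsin 0.05 μM, Ac-peptide 8 μM. IC50 from four-parameter fit of % inhibition versus concentration.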

PI3Kα = target: T2, PI3Kα (Homo sapiens, UniProt P42336); test: PI3Kα activity inhibition (Kinase-Glo); type: biochemical
T2 construct: purchased Invitrogen PV4788
T2 sequence (P42336 whole entry, species assumed): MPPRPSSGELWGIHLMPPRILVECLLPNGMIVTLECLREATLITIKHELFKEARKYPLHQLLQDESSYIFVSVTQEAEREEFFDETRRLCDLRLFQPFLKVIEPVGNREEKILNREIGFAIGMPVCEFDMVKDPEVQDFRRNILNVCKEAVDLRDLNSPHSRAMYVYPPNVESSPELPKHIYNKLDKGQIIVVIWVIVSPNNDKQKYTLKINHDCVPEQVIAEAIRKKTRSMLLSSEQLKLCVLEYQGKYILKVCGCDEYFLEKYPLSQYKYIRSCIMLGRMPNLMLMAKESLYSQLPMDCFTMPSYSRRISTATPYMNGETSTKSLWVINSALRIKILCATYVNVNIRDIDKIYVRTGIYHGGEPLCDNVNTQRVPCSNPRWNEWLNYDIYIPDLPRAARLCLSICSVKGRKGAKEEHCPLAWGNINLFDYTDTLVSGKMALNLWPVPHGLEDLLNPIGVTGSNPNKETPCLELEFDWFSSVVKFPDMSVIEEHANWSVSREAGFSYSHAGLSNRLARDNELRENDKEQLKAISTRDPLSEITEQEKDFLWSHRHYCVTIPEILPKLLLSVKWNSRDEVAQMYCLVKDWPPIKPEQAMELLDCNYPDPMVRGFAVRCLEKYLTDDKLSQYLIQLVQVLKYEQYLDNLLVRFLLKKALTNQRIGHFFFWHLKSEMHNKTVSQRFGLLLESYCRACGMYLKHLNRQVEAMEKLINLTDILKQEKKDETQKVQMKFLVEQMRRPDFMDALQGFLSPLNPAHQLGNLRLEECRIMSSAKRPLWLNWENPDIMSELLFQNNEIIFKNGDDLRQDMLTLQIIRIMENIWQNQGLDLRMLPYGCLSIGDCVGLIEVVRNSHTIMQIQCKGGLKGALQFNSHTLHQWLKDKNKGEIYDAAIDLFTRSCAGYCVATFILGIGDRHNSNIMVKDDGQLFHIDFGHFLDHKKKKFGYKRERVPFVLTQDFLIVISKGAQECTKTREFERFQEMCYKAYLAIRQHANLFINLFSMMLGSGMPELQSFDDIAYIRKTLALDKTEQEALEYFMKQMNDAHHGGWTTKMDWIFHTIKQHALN
T2 sequence (P27986 whole entry partner, species assumed): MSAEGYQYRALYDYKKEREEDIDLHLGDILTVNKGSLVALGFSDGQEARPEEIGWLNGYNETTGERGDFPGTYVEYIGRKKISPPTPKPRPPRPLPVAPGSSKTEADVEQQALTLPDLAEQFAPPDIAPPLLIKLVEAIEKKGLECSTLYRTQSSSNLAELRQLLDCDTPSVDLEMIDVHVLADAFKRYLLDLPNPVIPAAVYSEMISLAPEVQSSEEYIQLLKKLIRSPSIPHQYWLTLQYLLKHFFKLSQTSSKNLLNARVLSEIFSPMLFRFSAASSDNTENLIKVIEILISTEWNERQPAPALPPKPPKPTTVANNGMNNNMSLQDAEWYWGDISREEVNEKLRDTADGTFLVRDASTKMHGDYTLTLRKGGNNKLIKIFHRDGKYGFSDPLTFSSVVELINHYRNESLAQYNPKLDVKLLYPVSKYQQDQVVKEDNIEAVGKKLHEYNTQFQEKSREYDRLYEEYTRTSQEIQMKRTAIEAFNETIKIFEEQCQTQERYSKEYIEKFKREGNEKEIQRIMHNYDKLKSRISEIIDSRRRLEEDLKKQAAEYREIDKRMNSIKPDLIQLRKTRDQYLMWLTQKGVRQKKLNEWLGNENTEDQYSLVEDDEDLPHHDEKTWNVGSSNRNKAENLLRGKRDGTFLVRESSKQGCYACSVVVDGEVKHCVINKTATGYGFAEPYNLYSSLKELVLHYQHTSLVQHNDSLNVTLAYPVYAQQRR
Summary of the method: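 Kinase-Glo luminescence read-out of remaining ATP after PI3K reaction with PIP2 and ATP substrates in 50 mM HEPES pH 7.5, 3 mM MgCl2, 1 mM EGTA, 100 mM NaCl, 0.03% CHAPS, 2 mM DTT. Incubated at ambient temperature, 1 h for PI3Kα, 2 h for PI3Kδ. IC50 from four-parameter fit of % inhibition versus concentration.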

PI3Kβ = target: T3, PI3Kβ (Homo sapiens, UniProt P42338); test: PI3Kβ activity inhibition (ADP-Glo); type: biochemical; conditions: Table 1, graded
T3 construct: purchased Millipore 14-603-K
Protocol: (§1) Detecting the inhibition capability of the compound to PI3Kβ and PI3Kγ activities with ADP-Glo (purchased from Promege Company; Catalog No.: v9102/3). […] The reaction system also comprises substrates as PIP2 and ATP. The reaction buffer system comprises 50 mM HEPES, 3 mM MgCl2, 1 mM EGTA, 100 mM NaCl, 0.03% CHAPS and 2 mM DTT. The pH value of the reaction buffer is 7.5. […] Mixing the system evenly for incubation under ambient temperature for 1 h; getting a new 384 well plate and transferring 5 μL reaction liquid from the each well of original 384 well plate to the corresponding wells of the new 384 well plate; adding 5 μL ADP-Glo which has been preheated to ambient temperature into each new reaction well to terminate the reaction; oscillating it slowly in dark place for 40 min's incubation after it is mixed evenly; adding 10 μL testing liquid in each reaction well, oscillating it for 1 min to mix evenly and incubating it for 1 h, then measuring the fluorescence intensity with a microplate reader and analyzing the result data with the software GraphPad Prism.
(§2) Calculating the value of IC50 as per the formula: Y=background data+(top data−background data)/(1+10^((Log IC50−X)*rate of curve))
(§3) Where, Y refers to the inhibition ratio (%) and X refers to the compound concentration.

PI3Kδ = target: T4, PI3Kδ (Homo sapiens, UniProt O00329); test: PI3Kδ activity inhibition (Kinase-Glo); type: biochemical; conditions: Table 1, graded
T4 construct: purchased Millipore 14-604-K
Protocol: Detecting the inhibition capability of the compound to PI3Kα and PI3Kδ activities with Kinase-Glo (purchased from Promege Company; Catalog No.: V3771). […] The reaction system also comprises substrates as PIP2 (4, 5-diphosphoinositide, purchased from Life Technologies Company) and ATP (triphosadenine, purchased from Sigma Company). The reaction buffer system comprises 50 mM HEPES (4-hydroxyethylpiperazine ethane sulfonic acid), 3 mM MgCl2, 1 mM EGTA (ethylene glycol bis(2-amino ethylether)quadrol), 100 mM NaCl, 0.03% CHAPS (3-[3-(cholamidopropyl)dimethylamino]-1-propanesulfonic acid), 2 mM DTT (dithiothreitol). The pH value of the reaction buffer is 7.5. […] Mixing the system evenly for incubation under ambient temperature (for 1 h in PI3Kα test and for 2 h in PI3Kδ test). After incubation, adding 10 μL Kinase-Glo which has been preheated to ambient temperature into each reaction well to terminate the reaction; shaking it in dark place for 15 min after it is mixed evenly, then measuring the fluorescence intensity with a microplate reader and analyzing the result data with the software GraphPad Prism.
as §2, §3

PI3Kγ = target: T5, PI3Kγ (Homo sapiens, UniProt P48736); test: PI3Kγ activity inhibition (ADP-Glo); type: biochemical; conditions: Table 1, graded
T5 construct: purchased Invitrogen PR8641C
T5 sequence (P48736 whole entry): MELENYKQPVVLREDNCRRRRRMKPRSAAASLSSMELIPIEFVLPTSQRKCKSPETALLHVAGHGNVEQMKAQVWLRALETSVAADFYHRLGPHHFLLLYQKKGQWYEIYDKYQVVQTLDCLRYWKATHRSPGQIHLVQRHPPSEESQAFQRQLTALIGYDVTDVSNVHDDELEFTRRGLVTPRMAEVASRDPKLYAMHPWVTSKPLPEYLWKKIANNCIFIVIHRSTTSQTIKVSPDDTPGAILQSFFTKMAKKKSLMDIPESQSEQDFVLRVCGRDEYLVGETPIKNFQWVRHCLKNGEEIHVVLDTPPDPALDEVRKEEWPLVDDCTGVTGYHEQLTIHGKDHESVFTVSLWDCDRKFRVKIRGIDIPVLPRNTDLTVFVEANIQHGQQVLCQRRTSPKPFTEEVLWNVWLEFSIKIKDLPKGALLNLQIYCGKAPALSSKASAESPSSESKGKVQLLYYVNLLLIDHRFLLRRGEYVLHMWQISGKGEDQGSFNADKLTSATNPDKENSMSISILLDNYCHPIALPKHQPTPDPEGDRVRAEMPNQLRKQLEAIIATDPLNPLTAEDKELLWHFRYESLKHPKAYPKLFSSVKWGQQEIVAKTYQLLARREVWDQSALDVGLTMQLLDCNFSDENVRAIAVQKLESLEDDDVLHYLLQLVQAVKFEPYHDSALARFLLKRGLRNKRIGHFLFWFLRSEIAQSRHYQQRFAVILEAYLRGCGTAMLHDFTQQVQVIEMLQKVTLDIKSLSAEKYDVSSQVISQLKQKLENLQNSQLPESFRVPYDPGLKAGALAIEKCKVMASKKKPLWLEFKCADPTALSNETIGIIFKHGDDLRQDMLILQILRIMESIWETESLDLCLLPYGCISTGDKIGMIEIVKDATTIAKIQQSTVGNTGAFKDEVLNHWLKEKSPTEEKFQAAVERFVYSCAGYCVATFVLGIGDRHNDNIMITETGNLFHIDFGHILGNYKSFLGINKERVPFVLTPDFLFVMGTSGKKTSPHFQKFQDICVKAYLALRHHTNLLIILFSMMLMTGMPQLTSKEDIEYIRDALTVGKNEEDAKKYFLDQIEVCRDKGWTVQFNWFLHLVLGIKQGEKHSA
Protocol: as §1, §2, §3

mTOR = target: T6, mTOR (Homo sapiens, UniProt P42345); test: mTOR activity inhibition (ULight-4E-BP1 peptide); type: biochemical; conditions: Table 1, graded
T6 construct: purchased Millipore 14-770
T6 sequence (P42345 1362-2549 limits assumed): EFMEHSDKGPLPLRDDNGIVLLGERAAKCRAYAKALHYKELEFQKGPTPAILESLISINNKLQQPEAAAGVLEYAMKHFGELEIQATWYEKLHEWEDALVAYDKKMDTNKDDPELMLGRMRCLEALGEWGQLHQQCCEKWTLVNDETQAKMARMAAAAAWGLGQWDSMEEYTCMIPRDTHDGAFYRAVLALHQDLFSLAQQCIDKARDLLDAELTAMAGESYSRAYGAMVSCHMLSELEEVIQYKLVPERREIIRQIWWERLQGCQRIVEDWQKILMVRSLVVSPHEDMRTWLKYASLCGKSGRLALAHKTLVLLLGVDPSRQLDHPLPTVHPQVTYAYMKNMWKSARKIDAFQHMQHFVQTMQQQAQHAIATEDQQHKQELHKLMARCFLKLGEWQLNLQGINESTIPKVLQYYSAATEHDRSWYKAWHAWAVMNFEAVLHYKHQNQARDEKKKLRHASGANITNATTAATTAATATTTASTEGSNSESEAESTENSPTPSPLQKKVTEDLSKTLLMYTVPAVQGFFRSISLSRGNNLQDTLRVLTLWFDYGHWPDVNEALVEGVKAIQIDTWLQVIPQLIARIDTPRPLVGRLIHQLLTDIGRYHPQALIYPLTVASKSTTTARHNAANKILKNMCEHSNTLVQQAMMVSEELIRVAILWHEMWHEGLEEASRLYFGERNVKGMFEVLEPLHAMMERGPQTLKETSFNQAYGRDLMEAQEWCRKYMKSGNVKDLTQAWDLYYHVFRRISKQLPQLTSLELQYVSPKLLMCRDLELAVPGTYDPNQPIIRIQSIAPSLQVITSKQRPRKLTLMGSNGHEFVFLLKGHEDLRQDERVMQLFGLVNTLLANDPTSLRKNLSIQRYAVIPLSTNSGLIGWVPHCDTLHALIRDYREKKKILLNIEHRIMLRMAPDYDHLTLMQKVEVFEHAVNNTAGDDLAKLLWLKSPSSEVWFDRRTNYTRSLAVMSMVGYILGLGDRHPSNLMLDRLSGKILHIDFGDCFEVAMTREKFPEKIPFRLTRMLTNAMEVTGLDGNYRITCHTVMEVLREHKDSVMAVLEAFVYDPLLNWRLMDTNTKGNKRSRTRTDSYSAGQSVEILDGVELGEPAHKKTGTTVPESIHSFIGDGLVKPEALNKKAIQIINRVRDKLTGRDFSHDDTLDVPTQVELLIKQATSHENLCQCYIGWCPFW
Protocol: mTOR protein is purchased from Millipore Company (Catalog No.: 14-770). The reaction buffer system comprises 50 mM HEPES, 10 mM MgCl2, 1 mM EGTA, 3 mM […], 0.01% Tween-20 (purchased from Chengdu Kelong Chemical Regent Factory) and 2 mM DTT. The pH value of the reaction buffer is 7.5. Preparing 10 μL reaction system in corresponding wells of the 384 well plate, which contains the compositions as: the compound with designed concentration (or blank control), mTOR protein (with the concentration of 2.5 nM), ULight-4E-BP1 (containing the 37th and the 46th threonine residues, Thr37/46) peptide (purchased from PE Company, Catalog No.: TRF0128-M) and ATP substrates (ULight-4E-BP1 peptide, with the concentration of 50 nM and ATP, with the concentration of […]). Mixing it evenly for incubation under ambient temperature for 1 h; adding 10 μL testing liquid containing EDTA (ethylenediaminetetraacetic acid) and Eu-anti-phosphorylation-4E-BP1 (Thr37/46) antibody (purchased from PE Company, Catalog No.: TRF0216-M) into the reaction wells (after the testing liquid is added, the concentration of EDTA is 8 mM and the concentration of Eu-phosphorylation-4E-BP1 antibody is 2 nM); mixing it evenly and incubating it for 1 h under ambient temperature, then measuring the fluorescence intensity with a microplate reader and analyzing the result data with the software GraphPad Prism.
as §2, §3

[1] = test system: MV4-11 cells (acute myeloid leukemia); test: Cell proliferation inhibition, MV4-11 (cck-8); type: cell-based; conditions: Homo sapiens
Summary of the method: (§4)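 Cells seeded at 2000-3000/well; adherent lines dosed after attachment, then 96 h incubation with compound. Viability read by MTT for solid-tumour lines (HCT116, A2780s) and CCK-8 for MV4-11; IC50 from four-parameter logistic fit of inhibition ratio versus concentration.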

[2] = test system: hct116 cells (colon cancer); test: Cell proliferation inhibition, hct116 (MTT); type: cell-based; conditions: Homo sapiens, HCT-116
Summary of the method: as §4

[3] = test system: A2780s cells (ovarian cancer); test: Cell proliferation inhibition, A2780s (MTT); type: cell-based; conditions: Homo sapiens
Summary of the method: as §4

[4] = test system: acetylated Ac-α-tubulin in A2780s cells; test: Induction of α-tubulin acetylation in A2780s cells (cytoblot); type: cell-based; conditions: Homo sapiens, 6 h treatment, read-out: Ac-Tub EC50
Protocol: (§5) Specific operation: After the treatment, washing each well once with 50-100 μl of cold TBS buffer [with the composition as 20 mM Tris (trismetyl aminomethane), pH7.5] and fixing it with 100 μL of 4% pre-cooled paraformaldehyde at 4° C. for 1 h; after paraformaldehyde is washed off, adding 50 μL of pre-cooled methyl alcohol in each well and evenly spreading at 4° C. for 5 min; after methyl alcohol is washed off, washing it once with the TBS buffer containing 3% skim milk powder and adding 50 μL of antibody fluid, oscillating it slightly at 4° C. and incubating overnight. For determination of Ac—H3, the antibody fluid is prepared by diluting Ac—H3 antibody and horseradish peroxide coupled secondary antibody to a same system with the TBS buffer containing 3% skim milk powder (Ac—H3 antibody is purchased from Santa Cruz Company and diluted at a ratio of 1:100; horseradish peroxide coupled secondary antibody is purchased from Jackson Company and diluted at a ratio of 1:2000); for determination of acetylated Ac-α-tubulin, the antibody fluid is prepared by diluting Ac-α-tubulin antibody and horseradish peroxide coupled secondary antibody to a same system with the TBS buffer containing 3% skim milk powder (Ac-α-tubulin antibody is purchased from Santa Cruz Company and diluted at a ratio of 1:100; horseradish peroxide coupled secondary antibody is purchased from Jackson Company and diluted at a ratio of 1:2000).
(§6) Calculating the value of IC50 as per the formula: Y=background data+(top data−background data)/(1+10^((Log EC50−X)*rate of curve)) Where, Y refers to the activating rate (%) and X refers to the compound concentration.

[5] = test system: acetylated histone H3 (Ac-H3) in A2780s cells; test: Induction of histone H3 acetylation in A2780s cells (cytoblot); type: cell-based; conditions: Homo sapiens, 6 h treatment
Protocol: as §5, §6

[6] = test system: MV4-11 subcutaneous tumor; conditions: 50 mg/kg i.p., once per two days, 22 days
Source text: During drug administration, measuring the weight and gross tumor volume of the mice per 2 days and keeping a record. The calculation formula is as V=π/6×A^2×B, where, where, V=gross tumor volume (mm^3), A=tumor width (mm) and B=tumor length (mm). Observing and keeping a record for the survival condition of the tested animals. After drug discontinuance, killing the mice through cervical dislocation and peeling off their tumors as per the operation specification of animal experiment. Evaluating the inhibition capability of the compounds to tumor activities by calculating the tumor inhibitory rate with the formula as: tumor inhibitory rate=(1−tumor weight of treatment group/tumor weight of control group)×100%. Analyzing and comparing the difference between each treatment group and control group with the method of t-test. The grading of significance level of difference is: ***, P<0.001; **, P<0.01; *, P<0.05; no statistical significance (ns), P>0.05.

[7] = test system: human colon cancer hct116 subcutaneous tumor; test: Subcutaneous tumor model, human colon cancer hct116; conditions: 50 mg/kg, once per 2 days, intraperitoneal
[8] = Table 1, graded, read-out: HDAC1 IC50
[9] = Table 1, graded, read-out: PI3Kα IC50
[10] = read-out: inhibition value IC50 to the activity of PI3Kα
[11] = 96 h incubation, read-out: Proliferation IC50, Acute myeloid leukemia MV4-11
[12] = read-out: IC50 to proliferation of MV4-11 cells
[13] = 96 h incubation, read-out: Proliferation IC50, Colon cancer hct116
[14] = read-out: IC50 to proliferation of hct116 cells
[15] = 96 h incubation, read-out: Proliferation IC50, Ovarian cancer A2780s
[16] = read-out: IC50 to proliferation of A2780s cells

T1 sequence (Q13547 whole entry, species assumed): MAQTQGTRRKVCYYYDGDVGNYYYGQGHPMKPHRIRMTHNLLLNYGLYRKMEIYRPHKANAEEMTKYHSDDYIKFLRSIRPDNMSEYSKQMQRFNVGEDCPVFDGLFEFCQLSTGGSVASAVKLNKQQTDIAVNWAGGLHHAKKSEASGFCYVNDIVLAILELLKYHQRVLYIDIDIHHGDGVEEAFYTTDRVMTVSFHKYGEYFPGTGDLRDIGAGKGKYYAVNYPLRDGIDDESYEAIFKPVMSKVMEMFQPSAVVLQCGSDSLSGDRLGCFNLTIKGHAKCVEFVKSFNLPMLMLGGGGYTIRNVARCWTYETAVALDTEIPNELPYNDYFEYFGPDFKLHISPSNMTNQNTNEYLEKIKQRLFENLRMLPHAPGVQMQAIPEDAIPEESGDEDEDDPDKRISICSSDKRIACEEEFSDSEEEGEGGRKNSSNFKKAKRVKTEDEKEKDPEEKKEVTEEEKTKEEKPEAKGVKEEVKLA

| Compound | IC50 (HDAC1; [8]) [nM] | IC50 (PI3Kα; [9]) [nM] | IC50 (PI3Kα; [10]) [nM] | IC50 (PI3Kβ) [nM] | IC50 (PI3Kδ) [nM] | IC50 (PI3Kγ) [nM] | IC50 (mTOR) [nM] | IC50 [1, 11] [nM] | IC50 [1, 12] [nM] | IC50 [2, 13] [nM] | IC50 [2, 14] [nM] | IC50 [3, 15] [nM] | IC50 [3, 16] [nM] | IC50 (HDAC1; read-out: inhibition value IC50 to the activity of HDAC1) [nM] | EC50 [4] [nM] | EC50 [5] [nM] | Final survival condition (survived individuals/total individuals) [6] | Death [7] |
| --- | --- | --- | --- | --- | --- | --- | --- | --- | --- | --- | --- | --- | --- | --- | --- | --- | --- | --- |
| CNc1ncc(-c2nc(N3CCOCC3)c3nc(CN(C)c4ncc(C(=O)NO)cn4)n(C)c3n2)cn1 [CLJ-12, 2-(((2-(4-aminemethylpyrimidine)-9-methyl-6-morpholine-9H-purine-8-yl))methyl(methyl)amino)-N-hydroxyl pyrimidine-5-formamide] | < 100 | < 100 | < 100 | 100 to 1000 | 100 to 1000 | 100 to 1000 | 100 to 1000 | 0.1 to 10 | 0.1 to 10 | 0.1 to 10 | 0.1 to 10 | 0.1 to 10 | 0.1 to 10 | – | – | – | – | – |
| COc1ccc(-c2nc(N3CCOCC3)c3sc(CN(C)c4ncc(C(=O)NO)cn4)cc3n2)cn1 [CUDC907, reference compound] | – | – | – | – | – | – | 1000 to 10000 | – | – | – | – | – | – | – | > 200 | 100 to 200 | – | – |
| O=C(CCCCCCC(=O)Nc1ccccc1)NO [SAHA, vorinostat, reference compound] | – | – | – | – | – | – | – | – | – | – | – | – | – | – | – | – | 6/6 | 0/6 |

The next lines start with results.

| IC50 (HDAC1; [8]) [nM] | IC50 (PI3Kα; [9]) [nM] | IC50 (PI3Kα; [10]) [nM] | IC50 (PI3Kβ) [nM] | IC50 (PI3Kδ) [nM] | IC50 (PI3Kγ) [nM] | IC50 (mTOR) [nM] | IC50 [1, 11] [nM] | IC50 [1, 12] [nM] | IC50 [2, 13] [nM] | IC50 [2, 14] [nM] | IC50 [3, 15] [nM] | IC50 [3, 16] [nM] | IC50 (HDAC1; read-out: inhibition value IC50 to the activity of HDAC1) [nM] | EC50 [4] [nM] | EC50 [5] [nM] | Compound | Final survival condition (survived individuals/total individuals) [6] | Death [7] |
| --- | --- | --- | --- | --- | --- | --- | --- | --- | --- | --- | --- | --- | --- | --- | --- | --- | --- | --- |
| < 100 | < 100 | < 100 | 100 to 1000 | 100 to 1000 | 100 to 1000 | 100 to 1000 | 0.1 to 10 | 0.1 to 10 | 0.1 to 10 | 0.1 to 10 | 0.1 to 10 | 0.1 to 10 | – | – | – | Cc1ncc(-c2nc(N3CCOCC3)c3nc(CN(C)c4ncc(C(=O)NO)cn4)n(C)c3n2)cn1 [CLJ-13] | – | – |
| < 100 | > 10000 | – | > 10000 | > 10000 | > 10000 | > 10000 | 0.1 to 10 | – | 10 to 100 | – | 0.1 to 10 | – | – | – | – | CN(Cc1nc2c(N3CCOCC3)nc(-c3cnc4ccccc4c3)nc2n1C)c1ncc(C(=O)NO)cn1 [CLJ-14, 2-(((2-(quinoline-3-yl)-9-methyl-6-morpholine-9H-purine-8-yl))methyl(methyl)amino)-N-hydroxyl pyrimidine-5-formamide] | – | – |
| < 1 | 1000 to 10000 | – | > 10000 | > 10000 | > 10000 | > 10000 | 10 to 100 | – | 10 to 100 | – | 10 to 100 | – | < 1 | – | – | CN(Cc1nc2c(N3CCOCC3)nc(-c3ccc4[nH]ncc4c3)nc2n1C)c1ncc(C(=O)NO)cn1 [CLJ-15, 2-(((2-(1H-indazole-5-yl)-9-methyl-6-morpholine-9H-purine-8-yl))methyl(methyl)amino)-N-hydroxyl pyrimidine-5-formamide] | – | – |
